Reference: patent US20250236892A1, “Inhibition of NHEJ, MMEJ, and 53BP1 Promotes High Levels of HDR” (Integrated DNA Technologies, Inc., priority 2024, published 2025)

What was measured:
HEK293 cells [1] = experiment: CAR knock-in at the TRAC locus with dsDNA Alt-R HDR donor block, PCR and Fragment Analyzer; assay type: cell-based; conditions: enhancer used alone; ART558 10 μM, V2 1 μM, Ubv-A protein 25 μM, Ubv-A mRNA 25 nM; Cas9 RNP or Cas9 mRNA
Protocol: FIG. 3A depicts percent CAR knock-in (KI) at the TRAC locus in HEK293 cells treated with 1 μg dsDNA Alt-R HDR donor block, 2 μM Cas9 RNP, and either 25 μM tagless Ubv-A protein or 25 nM Ubv-A mRNA or no Ubv-A and incubated in media containing DMSO (no enhancer), MMEJ inhibitor ART558 (ART, 10 μM), NHEJ inhibitor Alt-R HDR enhancer V2 (V2, 1 μM), or both ART558 and V2. Percent KI was calculated using PCR followed by analysis using an Agilent Fragment Analyzer and data processing using PROSize 3.0 software to calculate the relative molar concentrations between wild-type and edited products. Error bars indicate SD, n=3. […]
HEK293 cells were harvested and resuspended in SF Cell Line Nucleofector Solution (Lonza, V4SC-2096) at a concentration of approximately 16,500 cells/μl and 18 μl of this cell suspension was used for each nucleofection. […] To quantify knock-in percentages, genomic DNA flanking the sgRNA target site was amplified by PCR, PCR products were separated on a Fragment Analyzer (Agilent Technologies), and the percentage of edited and unedited alleles was calculated using PROSize 3.0 software.
Recent publications have shown that inhibition of MMEJ through inhibition of DNA polymerase theta using small molecule inhibitors increases the rate of HDR and reduces undesired edits^16,27. […] Genomic DNA was isolated approximately 48 hours after delivery and editing was analyzed by NGS. […]

HEK293 cells [2] = experiment: HDR insertion of a 6-nt EcoRI sequence at SpCas9 RNP induced DSBs with ssDNA donor, repair events measured by NGS; assay type: cell-based
Protocol: FIG. 1 depicts inhibition of NHEJ, MMEJ, and 53BP1 leads to high levels of HDR at SpCas9 induced DSBs. HEK293 cells were treated with Cas9 RNP (2 μM) targeting 5 different sites (FIG. 1A: AADACL3; FIG. 1B: ANKRD50; FIG. 1C: ABCD4: FIG. 1D: AR; FIG. 1E: AKAP6) in the genome alongside ssDNA donor template with or without Ubv-A protein (25 μM). Cells were then plated in media containing no DMSO, DMSO control, ART, V2, or ART+V2 for 24 hours before exchanging for fresh media (see Methods for concentrations). The graphs show the percent of each repair event under each condition measured by NGS with error bars indicating SD from three replicates. Likely MMEJ deletions are determined based on the presence of microhomology of two nucleotides or greater at the ends of the deletion.
For HDR using ssDNA templates in HEK293 cells genome editing was mediated via IDT Alt-R Cas9 ribonucleoprotein, IDT Alt-R AsCas12a Ultra, or EURECA-V (a ErCas12a variant) (RNP) complexes delivered by Lonza nucleofection in concert with single-stranded oligodeoxynucleotide (ssODN) HDR repair templates. The specific repair event was the insertion of a 6-nt EcoRI sequence (5′-GAATTC-3′) at either the Cas9, AsCas12a, or ErCas12a cut site. The sgRNAs for Cas9 and crRNAs for AsCas12a corresponding to the protospacer sequences listed in Table 2 were ordered from IDT (Table 2). The HDR donor templates for Cas9 editing contain 40-nt homology arms (HA) flanking a 6 nt EcoR1 cut site insert. The HDR donor templates for AsCas12a were similar except for slightly different homology arm lengths (40 nt 5′ HA and 45 nt 3′ HA)^66. The HDR donor sequences listed in Table 3 were ordered from IDT as Alt-R HDR donor oligos (Table 3). The repair templates are homologous to the non-targeting strand of dsDNA, where targeting/non-targeting is defined with respect to the guide RNA sequence and the presence of the NGG/TTTV PAM sequence identifying the non-target strand. […]

Cc1cccc(N(C)C(=O)[C@@H]2[C@H](O)CCN2c2nc(C)cc(C(F)(F)F)c2C#N)c1 [ART558, reference compound]
HDR (CAR knock-in) (HEK293 cells [1]): minimal effect on HDR | HDR (HEK293 cells [2]; 10 μM ART558 alone in media 24 hours, 2 μM Cas9 RNP, 2 μM ssDNA, 5 sites): minimal boost in HDR | HDR, site with largest increase (HEK293 cells [2]; 10 μM ART558 alone, AKAP6 site, highest level of likely MMEJ repair events in media only condition): AKAP6 | rates of HDR and likely MMEJ events (HEK293 cells [2]; 10 μM ART558 in combination with 1 μM V2, compared with ART558 plus Ubv-A): the effect is less pronounced
